Columns and labels:
acute toxicity, peroral = test: acute toxicity, peroral; set-up: species or system Ratte; details: in vivo, po, rat
Method: Die akute Toxizität von DOP wurde peroral an der Ratte bestimmt; die letale Dosis, bei der 50% der Versuchstiere verenden (LD50), beträgt mehr als 2000 mg/kg.

Haut = test: skin irritation test according to EU Commission 93/21/EEC; assay type: in vivo, Kaninchen; details: rabbit; after 24, 48 and 72 hours
From the text: (§1) Um festzustellen, ob DOP Reizungen der Augen oder der Haut hervorrufen kann, wurde am Kaninchen ein Augenreiztest und ein Hautreiztest durchgeführt, beide gemäß der Verordnung der EU-Kommission Nr. 93/21/EEC vom 27.04.1993.

[1] = test system: Kornea, Iris und Konjunktiva; test: eye irritation test according to EU Commission 93/21/EEC; assay type: in vivo, Kaninchen; details: rabbit; effects on cornea, iris and conjunctiva after 24, 48 and 72 hours
From the text: as §1

## O=[PH]1Oc2ccccc2-c2ccccc21 (stereo not shown) [DOP, (6H)-Dibenz-(c,e)(1,2)-oxaphosphorin-6-on]
Acute toxicity, peroral
  LD50: > 2000 mg/kg
Haut
  Hautreiztest: Einstufung: nicht hautreizend
  Hautreiztest: Erythembildung / Oedembildung: weder eine Erythembildung noch eine Oedembildung
[1]
  Augenreiztest: Einstufung: nicht augenreizend

From patent EP1000624A1, “Use of DOP as antioxidant, anti-ageing additive and medicament” (priority 1998, dated 2000)
